Usually IC50 stands for the concentration that inhibits the measured activity by half.

Test systems include LOX; SKOV3; HT29; T47D.
Assay in all cases: Microculture tetrazolium assay
Type in all cases: cell-based

Another experiment has as its system SKVLB. The conditions noted are these: for VLB/OV3: IC50 ratio SKVLB/SKOV3; for IC50: SKVLB.
Where [1] appears, read: Homo sapiens, SK-OV-3, SKOV3, read-out: IC50.
Setting [2] is: Homo sapiens, HT-29, HT29, read-out: IC50.

Several values for one entry are separate records, joined by “and”; a condition that tells them apart may be missing. Equal values may be shown once. Where a name gives a salt, the structure may show the parent alone. Read-outs that look alike come from different tables or passages of the source.

In the case of “1S,3R-Methyl(1-[2',3',6'-trideoxy-3'-trifluoroacetamido-4'-hydroxy-1,5-dihydro-L-lyxohexopyranose-2-yl)-6,11-dioxo-3,4,5,12-tetrahydroanthraceno[2,3- c]pyran-3-yl)ketone [BCH-2156]”, the VLB/OV3 with SKVLB is on record as 1.57. Besides, the IC50 is 5360 nM in the experiment with SKVLB (read-out: IC50); 375 nM in the experiment on LOX (read-out: IC50); 3410 nM in the experiment with SKOV3 (SKOV3, read-out: IC50); 1190 nM in the experiment on HT29 (HT29, read-out: IC50); 2710 nM with T47D (read-out: IC50).
For `CC(=O)C1CC2=C(C(=O)c3cc4ccccc4c(O)c3C2=O)C(O[C@H]2C[C@H](NC(=O)C(F)(F)F)[C@H](OC(=O)c3ccc([N+](=O)[O-])cc3)[C@H](C)O2)O1` (mixture of isomers) [BCH-1122, (1S',1R,3S) and (1'S,1S,3R)-methyl (6-hydroxy-1-(2',3',6'-trideoxy-3'-trifluoroacetamido-4'-O-p-nitrobenzoyl-L-lyxohexopyranose)-6-hydroxy-5,12-dioxo-3,4,5,12-tetra-hydroanthraceno[2,3-C]pyran-3-yl) ketone], in the experiment with SKVLB, the VLB/OV3 is 3.44. For the same compound, the IC50 in the experiment with SKVLB (read-out: IC50) was 14700 nM; with LOX (read-out: IC50) it was 2140 nM; in the experiment on SKOV3 (setting [1]), 4270 nM; with HT29 (setting [2]) it was above 100000 nM; in the experiment with T47D (Homo sapiens, read-out: IC50), 6790 nM.
For `CC(=O)C1Cc2c(O)c3c(c(O)c2C(O[C@H]2C[C@H](NC(=O)C(F)(F)F)[C@H](O)[C@H](C)O2)O1)C(=O)c1ccccc1C3=O` (mixture of isomers) [BCH-1131, (1'S,1S,3R) and (1'S,1R,3S)-Methyl-[5,12-dihydroxy-1-(2',3',6'-trideoxy-3'-trifluoroacetamido-4'-hydroxy-L-lyxohexopyranose)-6,11-dioxo-3,4,6,11,tetrahydroanthraceno-(2,3-C)pyran-3-yl]ketone], the VLB/OV3 in the experiment on SKVLB was determined as 2.45. The IC50 in the experiment with SKVLB (read-out: IC50) was 11200 nM; in the experiment with LOX (read-out: IC50) it was 4830 nM; with SKOV3 (setting [1]) it was 4580 nM; in the experiment on HT29 (setting [2]), 6930 nM; in the experiment with T47D (Homo sapiens, read-out: IC50), 9480 nM.
`COC(=O)[C@@H](N)COC1OC(C(C)=O)CC2=C1C(=O)c1cc3ccccc3c(O)c1C2=O` (mixture of isomers) [BCH-1657, (1S,2'S,3R) and (1R, 2'S,3S)-Methyl-{6-hydroxyl-1[O-serinemethyl ester]-5,12-dioxo-3,4,5,12-tetrahydroanthraceno-[2,3-c]pyran-3-yl}ketone hydrochloride salt]: the VLB/OV3 in the experiment with SKVLB was determined as 7.42. Moreover, the IC50 in the experiment on SKVLB (read-out: IC50) was 4250 nM; in the experiment on LOX (read-out: IC50) it was 2410 nM; in the experiment with SKOV3 (setting [1]), 573 nM; in the experiment with HT29 (setting [2]), 2590 nM; in the experiment on T47D (Homo sapiens, read-out: IC50), 3110 nM.
As to `C[C@@H]1O[C@@H](O[C@H]2O[C@H](C(C)(F)F)CC3=C2C(=O)c2cc4ccccc4c(O)c2C3=O)C[C@H](O)[C@@H]1O` (mixture of isomers) [BCH-1662, (1'S,1S,3S) and (1'S,1R, 3R)-5,12-dioxo-3-(1,1-difluoroethyl)-6-hydroxy-1-(2',6'-dideoxy-L-lyxohexopyranose)-3,4,5,12-tetrahydroanthraceno-[2,3-c]-pyran], the VLB/OV3 in the experiment on SKVLB came out at 1.04. The IC50 is 89900 nM in the experiment with SKVLB (read-out: IC50); 38100 nM in the experiment on LOX (read-out: IC50); 86600 nM with SKOV3 (setting [1]); 79600 nM with HT29 (setting [2]); 59700 nM in the experiment on T47D (Homo sapiens, read-out: IC50).
Consider `C[C@@H]1O[C@@H](O[C@@H]2O[C@@H](C(C)(F)F)CC3=C2C(=O)c2cc4ccccc4c(O)c2C3=O)C[C@H](O)[C@@H]1O` (mixture of isomers) [BCH-1663, (1'S,1S,3S) and (1'S,1R, 3R)-5,12-dioxo-3-(1,1-difluoroethyl)-6-hydroxy-1-(2',6'-dideoxy-L-lyxohexopyranose)-3,4,5,12-tetrahydroanthraceno-[2,3-c]-pyran], for which, in the experiment with SKVLB, the VLB/OV3 stood at 1.16. Besides, the 50% inhibitory concentration (IC50) came to 32400 nM in the experiment with SKVLB (read-out: IC50); 31200 nM with LOX (read-out: IC50); 27900 nM in the experiment on SKOV3 (setting [1]); 31300 nM with HT29 (setting [2]); 47900 nM in the experiment on T47D (Homo sapiens, read-out: IC50).
`COCC1Cc2c(O)c3c(c(O)c2C(O[C@H]2C[C@H](N)[C@H](O)[C@H](C)O2)O1)C(=O)c1ccccc1C3=O` (mixture of isomers) [BCH-1992, (1'S,1S,3R) and (1'S,1R,3S)-5,12-dihydroxy-3-methoxymethyl-1-(2',3',6'-trideoxy-3'-amino-L-lyxohexopyranose)-1,2,3,4-tetrahydro-(2-oxygen)naphthacene-6,11-dione hydrochloride]: in the experiment on SKVLB, the VLB/OV3 came out at 4.81. In addition, the IC50 in the experiment on SKVLB (read-out: IC50) was 2740 nM; in the experiment on LOX (read-out: IC50), 666 nM; in the experiment with SKOV3 (setting [1]), 570 nM; with HT29 (Homo sapiens, HT-29, HT29), 183 nM; in the experiment with T47D (Homo sapiens, read-out: IC50), 807 nM.
On to `CC(=O)[C@@H]1CC2=C(C(=O)c3cc4ccccc4c(O)c3C2=O)[C@@H](O[C@H]2C[C@H](N)[C@H](O)[C@H](C)O2)O1` [BCH-1128], for which the VLB/OV3 with SKVLB is 1.60 and 1.83. In addition, the IC50 is 1400 nM and 2200 nM in the experiment on SKVLB (read-out: IC50); 850 nM and 493 nM in the experiment on LOX (read-out: IC50); 874 nM in the experiment with SKOV3 (setting [1]); 1200 nM in the experiment on SKOV3 (SKOV3, read-out: IC50); 1310 nM with T47D (Homo sapiens, read-out: IC50); 1910 nM with T47D (read-out: IC50).
In the case of `CC(=O)[C@@H]1Cc2c(O)c3c(c(O)c2[C@@H](O[C@H]2C[C@H](N)[C@H](O)[C@H](C)O2)O1)C(=O)c1ccccc1C3=O` [BCH-1194, (1'S,1R,3S)-Methyl-[5,12-dihydroxy-1-(2',3',6'-trideoxy-3'-amino-4'-hydroxy-L-lyxohexopyranose)-6,11-dioxo-3,4,6,11-tetrahydroanthraceno-(2,3-C)pyran-3-yl]ketone hydrochloride], the VLB/OV3 in the experiment with SKVLB amounted to 260.71. For the same compound, the IC50 in the experiment on SKVLB (read-out: IC50) was determined as 1460 nM; in the experiment on LOX (read-out: IC50) it was 62.3 nM; in the experiment on SKOV3 (setting [1]), 5.6 nM; in the experiment with T47D (Homo sapiens, read-out: IC50), 43.9 nM.
The like results for `CC(=O)[C@H]1Cc2c(O)c3c(c(O)c2[C@H](O[C@H]2C[C@H](N)[C@H](O)[C@H](C)O2)O1)C(=O)c1ccccc1C3=O` [BCH-1195, (1'S,1S,3R)-Methyl-[5,12-dihydroxy-1-(2',3',6'-trideoxy-3'-amino-4'-hydroxy-L-lyxohexopyranose)-6,11,dioxo-3,4,6,11-tetrahydroanthraceno-(2,3-C)pyran-3-yl]ketone hydrochloride] were, in that order, 4.99, 3350 nM, 741 nM, 672 nM and 1410 nM.
Taken in the same sequence, the figures for `CC[C@@H]1CC2=C(C(=O)c3cc4ccccc4c(O)c3C2=O)[C@@H](O[C@H]2C[C@H](NC(=O)C(F)(F)F)[C@H](O)[C@H](C)O2)O1` [BCH-1606, (1'S,1R,3R)-5,12-dioxo-3-ethyl-6-hydroxy-1-(2',3',6'-trideoxy-3'-trifluoroacetamido-4'-hydroxy-L-lyxohexopyranose)-3,4,5,12-tetrahydroanthraceno[2,3-c]pyran] were 2.88, 3260 nM, 891 nM, 1130 nM and 1330 nM.
As for `CC[C@H]1CC2=C(C(=O)c3cc4ccccc4c(O)c3C2=O)[C@H](O[C@H]2C[C@H](N)[C@H](O)[C@H](C)O2)O1` [BCH-1610, (1'S,1S,3S)-5,12-dioxo-3-ethyl-6-hydroxy-1-(2',3',6'-trideoxy-3'-amino-4'-hydroxy-L-lyxohexopyranose)-3,4,5,12-tetrahydroanthraceno[2,3-c]pyran hydrochloride], the VLB/OV3 in the experiment on SKVLB is 3.30. The IC50 with SKVLB is 2770 nM; with LOX, 845 nM; in the experiment on SKOV3 (Homo sapiens, SK-OV-3, SKOV3), 839 nM; with T47D (Homo sapiens), 1360 nM.

(Values after US5593970A, “Heterocyclic anthracycline analogs” (priority 1994, dated 1997).)
